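Growth conditions: 96-well plates. Treatment: test compound, 48 hours, 5 concentrations. Analysis: linear interpolation between bracketing concentrations; unreached endpoints set to highest concentration. The concentration for 50% growth inhibition is given as GI50. Definition used: TGI = concentration required for complete inhibition of growth.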

What all share (test): NCI tumour cell line growth inhibition, 48 h
Experiment [1] relates to CCRF-CEM leukemia.
Experiment [2] relates to UO-31 renal.
The subject of experiment [3] is UACC-62 melanoma.
For experiment [4], the system named is MALME-3M melanoma.
Experiment [5] deals with OVCAR-4 ovarian.
The test system of experiment [6] is RPMI-8226 leukemia.
Experiment [7] concerns SK-MEL-2 melanoma.
Experiment [8] deals with OVCAR-8 ovarian.
For experiment [9], the system named is NCI-H23 lung.
Experiment [10] deals with RXF 393 renal.

Turning to `CCn1cnc2c(Nc3cccc(Cl)c3)nc(N[C@@H]3CCCC[C@@H]3N)nc21`, the GI50 is 2.88 µM in experiment [1]; 1.6 µM in experiment [2]; 1.49 µM in [3]; 1.57 µM in experiment [4]; 1.68 µM in experiment [5]; 1.8 µM in [6]. Moreover, the GI50 is 1.65 µM in experiment [7], 2.35 µM in experiment [8], 1.38 µM in experiment [9] and 1.35 µM in experiment [10]. In addition, the TGI in experiment [1] stood at 9.66 µM; in experiment [2], 4.04 µM; in experiment [3], 3.59 µM; in experiment [4], 3.21 µM; in experiment [5] it was 5.43 µM; in [6], 4.39 µM. Also, the TGI in [7] worked out at 3.43 µM; in [8], 9.53 µM; in experiment [9], 3.59 µM; in [10], 2.89 µM.
`C=C1C(=O)O[C@H]2[C@H]1CC/C(COC(=O)NCc1c[nH]c3ccc(Cl)cc13)=C\CC[C@@]1(C)O[C@@H]21`: the GI50 is 0.341 µM in [1]; 1.43 µM in [2]; 1.34 µM in experiment [3]; 1.68 µM in [4]; 1.45 µM in experiment [5]; 0.836 µM in [6]. Moreover, the GI50 in experiment [7] is 1.42 µM; in experiment [8] it was 1.38 µM; in experiment [9], 1.71 µM; in experiment [10] it was 1.37 µM. For the same compound, the TGI in [1] was 1.88 µM; in [2], 2.75 µM; in [3] it was 2.76 µM; in [4] it was 3.34 µM; in experiment [5], 3.16 µM; in experiment [6], 3.51 µM. Moreover, the TGI in [7] is 2.87 µM; in experiment [8] it was 3.36 µM; in experiment [9], 3.39 µM; in experiment [10], 2.76 µM.
Regarding `COC(=O)C1=C(CO)C2C=CC1C2` (centres undefined), the TGI in [1], in experiment [2], in experiment [3], in [4], in experiment [5] and in [6] was more than 100 µM each time. Moreover, the TGI in experiment [7], in [8], in [9] and in [10] was more than 100 µM each time.
For the compound `Cc1cc(Cl)cc2c1NC(=O)C2(O)C(C)C(=O)c1ccc(Cl)cc1` (centres undefined), the TGI in experiment [1] is more than 89.4 µM; in [2], more than 100 µM; in experiment [3] it was 44 µM; in experiment [4], more than 100 µM; in experiment [5], 62.1 µM; in experiment [6], 98.2 µM. Also, the TGI in experiment [7] is more than 100 µM; in experiment [8] it was more than 100 µM; in experiment [9] it was more than 100 µM; in experiment [10] it was 89.8 µM.
For `CN(C)CCCc1c[nH]c2ccccc12`, the TGI in experiment [1], in experiment [2], in [3], in experiment [4], in experiment [5] and in experiment [6] was more than 100 µM each time. The TGI in experiment [7], in experiment [8], in experiment [9] and in [10] was more than 100 µM each time.
Regarding `CCC(=C/[C@H](C)C/C=C/C(C)=C/[C@@H](C)C(=O)[C@@H](C)[C@H](O)[C@@H](C)CC)/C=C/[C@H]1OC(=O)C=C[C@H]1C`, the GI50 in experiment [1], in experiment [2], in experiment [3], in experiment [4], in experiment [5] and in experiment [6] was less than 0.01 µM in each case. Besides, the GI50 in experiment [7], in experiment [8], in experiment [9] and in experiment [10] was less than 0.01 µM in each case. The TGI in experiment [1] is 9.07 µM; in experiment [2], 1.15 µM; in [3] it was 0.0755 µM; in [5], 1.29 µM; in experiment [6] it was 0.0421 µM; in experiment [7] it was less than 0.01 µM. Also, the TGI is 1.27 µM in [8], 1.5 µM in experiment [9] and less than 0.01 µM in experiment [10].
`COc1ccc(-c2nc(-c3nc4ccc(OC)cc4[nH]3)cc3c2[nH]c2ccccc23)cc1`: the GI50 in experiment [1] was 0.887 µM; in [2], 1.66 µM; in experiment [3], 2.75 µM; in experiment [4], 27.5 µM; in [5], more than 100 µM; in experiment [6], 0.363 µM. In addition, the GI50 in [7] was 3.31 µM; in experiment [8] it was 1.04 µM; in experiment [9], 5.8 µM; in experiment [10], 2.77 µM. Besides, the TGI in experiment [1] is more than 100 µM; in experiment [2], more than 100 µM; in experiment [3], more than 100 µM; in [4] it was more than 100 µM; in experiment [5], more than 100 µM; in experiment [6] it was 2.86 µM. Further, the TGI was 49.2 µM in experiment [7], more than 100 µM in experiment [8], more than 100 µM in experiment [9] and more than 100 µM in [10].
Take `COc1ccc(-c2ccc(C3CC(c4ccc(Cl)cc4)=NN3)o2)c([N+](=O)[O-])c1` (centres undefined): the GI50 in experiment [1] is more than 100 µM; in [2], more than 100 µM; in experiment [3], 78.4 µM; in [4], more than 100 µM; in experiment [5], more than 100 µM; in experiment [6] it was more than 100 µM. For the same compound, the GI50 in experiment [7], in experiment [8], in experiment [9] and in [10] was more than 100 µM in each case. For the same compound, the TGI in experiment [1], in experiment [2], in experiment [3], in [4], in experiment [5] and in experiment [6] was more than 100 µM throughout. Further, the TGI in experiment [7], in experiment [8], in [9] and in [10] was more than 100 µM throughout.
Regarding `CCOC(=O)c1c(C(F)(F)F)n([O-])c2ccc(OC)cc2[n+]1=O`, the GI50 in [1] is 4.3 µM; in experiment [2] it was 6.68 µM; in experiment [3] it was 2.69 µM; in [4] it was 2.83 µM; in [5], 5.39 µM; in [6], 3.49 µM. The GI50 in experiment [7] was 19.2 µM; in experiment [8], 5.12 µM; in experiment [9] it was 3.68 µM; in experiment [10], 23.8 µM. Besides, the TGI is 41.7 µM in [1]; more than 100 µM in experiment [2]; 12 µM in experiment [3]; 30.9 µM in experiment [4]; more than 100 µM in [5]; 33.7 µM in experiment [6]. For the same compound, the TGI in experiment [7] was 54.4 µM; in [8], more than 100 µM; in experiment [9], 26.6 µM; in experiment [10], more than 100 µM.
For `Nc1nc2nc[nH]c2c(=O)[nH]1`, the TGI in experiment [1], in [2], in [3], in experiment [4], in [5] and in experiment [6] was more than 100 µM throughout. Moreover, the TGI in [7], in experiment [8], in experiment [9] and in experiment [10] was more than 100 µM each time.
Regarding `O=C(COc1ccccc1)NS(=O)(=O)c1ccccc1`, the TGI in [1], in experiment [2], in experiment [3], in experiment [4], in experiment [5] and in experiment [6] was more than 100 µM in each case. Also, the TGI in experiment [7], in [8], in [9] and in experiment [10] was more than 100 µM throughout.
As to `C[C@@]12CCC(=O)C=C1CC[C@H]1C2=CC[C@]2(C)C1CC[C@@]2(C)O` (some centres undefined), the TGI in experiment [1], in experiment [2], in experiment [3], in [4], in [5] and in [6] was more than 100 µM each time. Also, the TGI in experiment [7], in experiment [8], in experiment [9] and in experiment [10] was more than 100 µM throughout.
With `O=C1OC(O)C(Oc2ccc(Cl)cc2)=C1Cl` (centres undefined), the TGI in [1], in [2], in experiment [3], in [4], in experiment [5] and in [6] was more than 100 µM throughout. Besides, the TGI in experiment [7], in [8], in [9] and in [10] was more than 100 µM throughout.
Turning to `COc1ccc([N+](=O)[O-])c(S(=O)(=O)c2ccc(Cl)cc2)n1`, the GI50 in experiment [1] was 2.93 µM; in experiment [2] it was 2.97 µM; in experiment [3] it was 3.56 µM; in experiment [4], 2 µM; in [5], 2.32 µM; in [6], 3.38 µM. Moreover, the GI50 was 11.4 µM in experiment [7], 3.67 µM in [8], 4.58 µM in [9] and 4.45 µM in [10]. Also, the TGI came to 13.8 µM in experiment [1]; 10.2 µM in [2]; 13.3 µM in experiment [3]; 4.08 µM in [4]; 6.51 µM in experiment [5]; 51.9 µM in [6]. The TGI in [7] was determined as 24.3 µM; in [8] it was 15.9 µM; in [9], 29.2 µM; in experiment [10] it was 16.2 µM.
